From patent publication US11248010B2, “Compounds, compositions, and methods for modulating CFTR” (Proteostasis Therapeutics, Inc., priority 2016, dated 2022) come the findings set out here.

The structures appear in SMILES notation.

T1 sequence (P13569 with tags, fused parts or gaps DEL508-508): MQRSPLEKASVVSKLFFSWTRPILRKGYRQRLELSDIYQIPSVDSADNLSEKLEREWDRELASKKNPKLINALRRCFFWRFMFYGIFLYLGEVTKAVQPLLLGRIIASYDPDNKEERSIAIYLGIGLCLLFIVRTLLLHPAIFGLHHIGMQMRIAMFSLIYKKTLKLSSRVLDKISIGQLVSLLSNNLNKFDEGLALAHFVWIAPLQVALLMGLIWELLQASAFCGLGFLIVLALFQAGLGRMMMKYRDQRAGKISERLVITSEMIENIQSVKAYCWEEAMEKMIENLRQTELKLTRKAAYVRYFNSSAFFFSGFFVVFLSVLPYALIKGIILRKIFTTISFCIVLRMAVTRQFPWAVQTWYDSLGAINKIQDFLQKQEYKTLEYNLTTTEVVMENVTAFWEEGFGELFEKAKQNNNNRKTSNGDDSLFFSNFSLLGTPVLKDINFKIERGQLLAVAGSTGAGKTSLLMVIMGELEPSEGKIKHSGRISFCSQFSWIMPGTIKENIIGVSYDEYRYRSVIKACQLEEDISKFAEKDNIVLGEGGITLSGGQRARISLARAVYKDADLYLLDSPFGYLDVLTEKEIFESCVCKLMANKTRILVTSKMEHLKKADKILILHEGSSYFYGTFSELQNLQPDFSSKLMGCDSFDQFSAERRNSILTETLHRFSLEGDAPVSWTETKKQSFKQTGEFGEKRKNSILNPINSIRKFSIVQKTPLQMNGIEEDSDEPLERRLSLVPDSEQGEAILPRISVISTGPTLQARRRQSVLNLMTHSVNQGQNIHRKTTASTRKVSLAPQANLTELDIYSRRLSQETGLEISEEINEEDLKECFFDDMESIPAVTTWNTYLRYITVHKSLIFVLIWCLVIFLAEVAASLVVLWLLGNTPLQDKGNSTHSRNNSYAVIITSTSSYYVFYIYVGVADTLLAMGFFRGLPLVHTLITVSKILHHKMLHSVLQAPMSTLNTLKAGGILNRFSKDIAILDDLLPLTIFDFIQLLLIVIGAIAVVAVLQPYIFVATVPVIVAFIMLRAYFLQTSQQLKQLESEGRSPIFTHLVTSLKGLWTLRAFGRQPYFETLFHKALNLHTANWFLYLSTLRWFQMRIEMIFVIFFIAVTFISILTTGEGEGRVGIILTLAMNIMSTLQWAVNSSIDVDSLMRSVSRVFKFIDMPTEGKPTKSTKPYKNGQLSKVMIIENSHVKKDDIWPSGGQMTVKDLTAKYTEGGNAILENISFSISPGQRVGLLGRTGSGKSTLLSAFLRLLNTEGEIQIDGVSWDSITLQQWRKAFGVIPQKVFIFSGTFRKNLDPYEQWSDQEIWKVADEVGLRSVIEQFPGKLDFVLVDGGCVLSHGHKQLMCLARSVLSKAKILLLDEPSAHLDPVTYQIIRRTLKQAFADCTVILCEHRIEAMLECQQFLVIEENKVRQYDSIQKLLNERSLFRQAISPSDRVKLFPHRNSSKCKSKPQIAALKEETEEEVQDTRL

The assay has as its target T1, ΔF508-CFTR (Homo sapiens, UniProt P13569, DEL508-508).
T1 construct: primary lung epithelial cells (hBEs) homozygous for the Cystic Fibrosis-causing ΔF508 mutation are differentiated; endogenous in cells; host or cells: primary human bronchial epithelial cells (hBEs) homozygous for ΔF508, differentiated at an air-liquid interface
As to the kind of experiment: Ussing measurements (CFTR activity assay). The format is cell-based. The settings on record: compound at 1 uM; activity relative to a corrector (VX-809 (3 uM)); primary lung epithelial cells (hBEs) homozygous for ΔF508; CFTRinh-172-inhibitable short-circuit current. The method, then: As discussed above, Ussing measurements are used to measure CFTR activity. In this method, primary lung epithelial cells (hBEs) homozygous for the Cystic Fibrosis-causing ΔF508 mutation are differentiated for a minimum of 4 weeks in an air-liquid interface on SnapWell filter plates prior to the Ussing measurements. Cells are apically mucus-washed for 30 minutes prior to treatment with compounds. The basolateral media is removed and replaced with media containing the compound of interest diluted to its final concentration from DMSO stocks. Treated cells are incubated at 37° C. and 5% CO2 for 24 hours. At the end of the treatment period, the cells on filters are transferred to the Ussing chamber and equilibrated for 30 minutes. The short-circuit current is measured in voltage clamp-mode (Vhold=0 mV), and the entire assay is conducted at a temperature of 36° C.-36.5° C. Once the voltages are stabilized, the chambers are clamped, and data is recorded by pulse readings every 5 seconds. Following baseline current stabilization, the following additions can be applied and the changes in current and resistance of the cells can be monitored:
1. Benzamil to the apical chamber to inhibit ENaC sodium channel.
2. Forskolin to both chambers to activate ΔF508-CFTR by phosphorylation.
3. VX-770 to the apical chamber to potentiate ΔF508-CFTR channel opening.
4. CFTRinh-172 to the apical chamber to inhibit ΔF508-CFTR Cl— conductance.
The inhibitable current (that current that is blocked by CFTRinh-172) is measured as the specific activity of the ΔF508-CFTR channel, and increases in response to compound in this activity over that observed in vehicle-treated samples are identified as the correction of ΔF508-CFTR function imparted by the compound tested.
(+ indicates activity <200% of a corrector (VX-809 (3 uM)) with compound at 1 uM; ++ indicates activity >200% of a corrector (VX-809 (3 uM)) with compound at 1 uM.
Consider `CC(C)(C)c1cc([Si](C)(C)C(C)(C)C)c(NC(=O)c2c[nH]c3ccccc3c2=O)cc1O` [Compound 10, N-(4-(tert-Butyl)-2-(tert-butyldimethylsilyl)-5-hydroxyphenyl)-4-oxo-1,4-dihydroquinoline-3-carboxamide], for which the Activity result is “++ (activity >200% of a corrector (VX-809 (3 uM)) with compound at 1 uM)”. For `CC[Si](CC)(CC)c1cc(C(C)(C)C)c(NC(=O)c2c[nH]c3ccccc3c2=O)cc1O` [Compound 4, N-(2-(tert-Butyl)-5-hydroxy-4-(triethylsilyl)phenyl)-4-oxo-1,4-dihydroquinoline-3-carboxamide], the Activity result is “+ (activity <200% of a corrector (VX-809 (3 uM)) with compound at 1 uM)”.

Turning to `C[Si](C)(C)c1ccc(NC(=O)c2c[nH]c3ccccc3c2=O)cc1O` [Compound 17, N-(3-Hydroxy-4-(trimethylsilyl)phenyl)-4-oxo-1,4-dihydroquinoline-3-carboxamide], the Activity entry is given as “++ (activity >200% of a corrector (VX-809 (3 uM)) with compound at 1 uM)”. As for `CC(C)(C)c1cc([Si](C)(C)C(C)(C)C)c(O)cc1NC(=O)c1c[nH]c2ccccc2c1=O` [Compound 5, N-(2-tert-Butyl-4-(tert-butyldimethylsilyl)-5-hydroxyphenyl)-4-oxo-1,4-dihydroquinoline-3-carboxamide], the Activity entry is “++ (activity >200% of a corrector (VX-809 (3 uM)) with compound at 1 uM)”. For `CC[Si](C)(C)c1cc(C(C)(C)C)c(NC(=O)c2c[nH]c3ccccc3c2=O)cc1O` [Compound 2, N-[2-tert-Butyl-4-(ethyldimethylsilyl)-5-hydroxyphenyl]-4-oxo-1,4-dihydroquinoline-3-carboxamide] the value was “++ (activity >200% of a corrector (VX-809 (3 uM)) with compound at 1 uM)”. `CC(C)[Si](C)(C)c1cc(C(C)(C)C)c(NC(=O)c2c[nH]c3ccccc3c2=O)cc1O` [Compound 6, N-[2-tert-Butyl-4-[dimethyl(propan-2-yl)silyl]-5-hydroxyphenyl]-4-oxo-1,4-dihydroquinoline-3-carboxamide]: the Activity result is given as “++ (activity >200% of a corrector (VX-809 (3 uM)) with compound at 1 uM)”. For `C[Si](C)(C)c1cc(C(F)(F)F)c(NC(=O)c2c[nH]c3ccccc3c2=O)cc1O` [Compound 19, N-(5-Hydroxy-2-(trifluoromethyl)-4-(trimethylsilyl)phenyl)-4-oxo-1,4-dihydroquinoline-3-carboxamide] the value was “++ (activity >200% of a corrector (VX-809 (3 uM)) with compound at 1 uM)”. As to `CC(C)(C)c1cc([Si](C)(C)C)c(O)cc1NC(=O)c1c[nH]c2ccccc2c1=O` [Compound 1, N-[2-tert-Butyl-5-hydroxy-4-(trimethylsilyl)phenyl]-4-oxo-1,4-dihydroquinoline-3-carboxamide], the Activity result is on record as “++ (activity >200% of a corrector (VX-809 (3 uM)) with compound at 1 uM)”. As for `[2H]C([2H])([2H])[Si](c1cc([Si](C([2H])([2H])[2H])(C([2H])([2H])[2H])C([2H])([2H])[2H])c(NC(=O)c2c[nH]c3ccccc3c2=O)cc1O)(C([2H])([2H])[2H])C([2H])([2H])[2H]` [Compound 13, N-(5-Hydroxy-2,4-bis(tris(methyl-d3)silyl)phenyl)-4-oxo-1,4-dihydroquinoline-3-carboxamide], the Activity entry is recorded as “++ (activity >200% of a corrector (VX-809 (3 uM)) with compound at 1 uM)”. As to `C[Si](C)(C)c1cc(F)c(NC(=O)c2c[nH]c3ccccc3c2=O)cc1O` [Compound 18, N-(2-Fluoro-5-hydroxy-4-(trimethylsilyl)phenyl)-4-oxo-1,4-dihydroquinoline-3-carboxamide], the Activity entry is “++ (activity >200% of a corrector (VX-809 (3 uM)) with compound at 1 uM)”.

For the compound `CC[Si](C)(CC)c1cc(C(C)(C)C)c(NC(=O)c2c[nH]c3ccccc3c2=O)cc1O` [Compound 3, N-[2-tert-Butyl-4-[diethyl(methyl)silyl]-5-hydroxyphenyl]-4-oxo-1,4-dihydroquinoline-3-carboxamide], the Activity result was “++ (activity >200% of a corrector (VX-809 (3 uM)) with compound at 1 uM)”. For `CC(C)(C)c1cc([Si](C)(C)C)c(NC(=O)c2c[nH]c3ccccc3c2=O)cc1O` [Compound 8, N-[4-tert-Butyl-5-hydroxy-2-(trimethylsilyl)phenyl]-4-oxo-1,4-dihydroquinoline-3-carboxamide] the value was “++ (activity >200% of a corrector (VX-809 (3 uM)) with compound at 1 uM)”. The result for `CC(C)(C)c1cc([Si](C)(C)c2ccccc2)c(O)cc1NC(=O)c1c[nH]c2ccccc2c1=O` [Compound 7, N-(2-(tert-Butyl)-4-(dimethyl(phenyl)silyl)-5-hydroxyphenyl)-4-oxo-1,4-dihydroquinoline-3-carboxamide] reads “++ (activity >200% of a corrector (VX-809 (3 uM)) with compound at 1 uM)”; that for `[2H]C([2H])([2H])[Si](c1cc(C(C)(C)C)c(NC(=O)c2c[nH]c3ccccc3c2=O)cc1O)(C([2H])([2H])[2H])C([2H])([2H])[2H]` [Compound 12, N-(2-(tert-Butyl)-5-hydroxy-4-(tris(methyl-d3)silyl)phenyl)-4-oxo-1,4-dihydroquinoline-3-carboxamide], “++ (activity >200% of a corrector (VX-809 (3 uM)) with compound at 1 uM)”. For `C[Si](C)(C)c1cc([Si](C)(C)C)c(NC(=O)c2c[nH]c3ccccc3c2=O)cc1O` [Compound 11, N-(5-Hydroxy-2,4-bis(trimethylsilyl)phenyl)-4-oxo-1,4-dihydroquinoline-3-carboxamide] the value was “++ (activity >200% of a corrector (VX-809 (3 uM)) with compound at 1 uM)”.
